Data published in ChEMBL document CHEMBL1149923, “Synthesis and activity of enantiopure (S) (m-nitrobenzoyl) alanine, potent kynurenine-3-hydroxylase inhibitor” (Bioorg Med Chem Lett, 1995).

Legend:
Kynureninase = target: T1, Kynureninase (Rattus norvegicus, UniProt P70712); experiment: Tested for inhibitory activity against kynureninase from rat liver
T1 sequence (P70712 whole entry): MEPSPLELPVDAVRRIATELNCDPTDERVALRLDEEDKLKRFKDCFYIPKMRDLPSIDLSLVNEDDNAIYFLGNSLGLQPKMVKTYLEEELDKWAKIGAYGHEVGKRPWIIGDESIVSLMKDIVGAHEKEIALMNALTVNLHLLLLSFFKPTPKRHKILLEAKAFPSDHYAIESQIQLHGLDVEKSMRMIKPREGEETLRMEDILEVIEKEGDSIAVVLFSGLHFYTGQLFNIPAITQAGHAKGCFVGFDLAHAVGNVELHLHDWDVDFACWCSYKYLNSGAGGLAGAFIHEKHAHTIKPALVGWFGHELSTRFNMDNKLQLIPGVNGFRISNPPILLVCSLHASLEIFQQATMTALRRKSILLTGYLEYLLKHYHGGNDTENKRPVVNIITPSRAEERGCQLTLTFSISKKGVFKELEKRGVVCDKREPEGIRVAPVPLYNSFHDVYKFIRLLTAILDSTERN

[1] = target: Kynurenine 3-monooxygenase (Rattus norvegicus) (UniProt O88867); conditions: 100 uM
Sequence of Kynurenine 3-monooxygenase (Rattus norvegicus) (O88867 whole entry, looked up): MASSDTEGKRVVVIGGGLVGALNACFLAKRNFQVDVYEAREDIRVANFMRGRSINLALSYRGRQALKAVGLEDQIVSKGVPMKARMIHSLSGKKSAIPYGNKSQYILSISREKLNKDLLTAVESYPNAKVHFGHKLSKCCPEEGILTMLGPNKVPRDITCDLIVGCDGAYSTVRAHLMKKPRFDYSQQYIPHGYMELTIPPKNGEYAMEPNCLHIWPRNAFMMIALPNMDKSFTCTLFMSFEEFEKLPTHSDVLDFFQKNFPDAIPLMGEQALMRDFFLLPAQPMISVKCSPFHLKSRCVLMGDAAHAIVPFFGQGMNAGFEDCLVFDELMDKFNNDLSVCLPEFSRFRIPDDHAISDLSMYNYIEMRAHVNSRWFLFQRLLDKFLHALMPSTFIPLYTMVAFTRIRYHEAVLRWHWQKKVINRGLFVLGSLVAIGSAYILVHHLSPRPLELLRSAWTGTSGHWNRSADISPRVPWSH
Description: Tested for inhibitory activity against kynurenine 3-hydroxylase at 100 uM concentration

[2] = target: Kynurenine 3-monooxygenase (Rattus norvegicus, UniProt O88867); experiment: Tested for inhibitory activity against kynurenine 3-hydroxylase
Sequence of Kynurenine 3-monooxygenase (O88867 whole entry): as the sequence (O88867 whole entry, looked up) above

Row | SMILES | IC50 (Kynureninase) | inhibition [1] | IC50 [2]
1 | N[C@H](CC(=O)c1cccc([N+](=O)[O-])c1)C(=O)O | 100 µM | 60% | 
2 | N[C@@H](CC(=O)c1cccc([N+](=O)[O-])c1)C(=O)O | 60 µM |  | 0.5 µM
